Data as given in patent EP0562497A1, “1 alpha-hydroxy vitamins D7 and D4' processes for the preparation thereof and pharmaceutical compositions” (NISSHIN FLOUR MILLING CO., LTD., priority 1992, dated 1993).

Test system: Female Wistar rats
Assay: Activity test in ovariectomized, right sciatic nerve amputated rats: femur bone density and serum calcium after 6 weeks of oral administration
Assay type: in vivo
Conditions: for Serum calcium concentration / Bone density: 5 days per week for 6 weeks; for Serum calcium concentration: blood drawn the day after final administration; for Bone density: right femur, ash weight/volume, ovariectomy and sciatic nerve amputation; for increase in bone density / increase in serum calcium concentration: in words, compared with known 1α-hydroxy vitamin D₃, summary of Table 1
From the text: Seventy two rats were subjected to bilateral ovariectomy and right sciatic nerve amputation. Rats were divided into 9 groups of eight animals each. Another group of eight rats was subjected to sham operation. Over a period of 6 weeks after operation, each group was orally administered either 1α-hdyroxy vitamin D₃, 1α-hydroxy vitamin D₇ or 1α-hydroxy vitamin D₄ dissolved in 0.5% ethanol/porpyleneglycol (vehicle) at the frequency of 5 days per week. The sham operated group and control group were orally administered the vehicle alone. The next day after final administration, rats were killed, blood was drawn from abdominal cave and right femur was extracted. The bone volume of femur was measured in accordance with Archimedes' principle. After heat treatment at 700°C for 24 hrs, the weight of bone ash was measured. From these measured values, the bone density (ash weight/volume) of each femur was calculated. Serum calcium concentration was determined according to usual method.

Serum calcium concentration (0.02 µg/kg/day oral) | Serum calcium concentration (0.1 µg/kg/day oral) | Structure (SMILES) | Serum calcium concentration (0.5 µg/kg/day oral) | Bone density (0.5 µg/kg/day oral) | Serum calcium concentration (2.5 µg/kg/day oral) | Bone density (2.5 µg/kg/day oral) | Serum calcium concentration (12.5 µg/kg/day oral) | Bone density (12.5 µg/kg/day oral) | increase in bone density | increase in serum calcium concentration | Bone density (0.02 µg/kg/day oral) | Bone density (0.1 µg/kg/day oral)
– | – | C=C1/C(=C\C=C2/CCC[C@]3(C)[C@@H]([C@H](C)CC[C@@H](C)C(C)C)CC[C@@H]23)C[C@@H](O)C[C@@H]1O [1α-OH-D7, 1α-hydroxy vitamin D₇] | 10.5 ± 0.1 mg/dL | 0.581±0.004 mg/mm^3 | 10.7 ± 0.3 mg/dL | 0.585±0.007 mg/mm^3 | 10.9 ± 0.5 mg/dL | 0.589±0.004 mg/mm^3 | much greater increase in bone density | lesser increase in serum calcium concentration | – | –
10.8 ± 0.1 mg/dL | 11.0 ± 0.1 mg/dL | C=C1/C(=C\C=C2/CCC[C@]3(C)[C@@H]([C@H](C)CCCC(C)C)CC[C@@H]23)C[C@@H](O)C[C@@H]1O [1α-OH-D3, 1α-hydroxy vitamin D₃, reference compound] | 12.4 ± 0.2 mg/dL | 0.560±0.006 mg/mm^3 | – | – | – | – | – | – | 0.556±0.005 mg/mm^3 | 0.545±0.007 mg/mm^3
– | – | C=C1/C(=C\C=C2/CCC[C@]3(C)[C@@H]([C@H](C)CC[C@H](C)C(C)C)CC[C@@H]23)C[C@@H](O)C[C@@H]1O [1α-OH-D4, 1α-hydroxy vitamin D₄] | 10.5 ± 0.2 mg/dL | 0.576±0.006 mg/mm^3 | 11.0 ± 0.4 mg/dL | 0.583 ± 0.003 mg/mm^3 | – | – | much greater increase in bone density | lesser increase in serum calcium concentration | – | –
